Broadly, the Dmax is the greatest extent of degradation seen. One may read the DC50 as the concentration at which degradation of the target reaches its halfway point.

The structures appear in SMILES notation. Like-named read-outs stand apart in the source and are kept apart here.

Here are results for eleven compounds from patent publication US11427548B2 (Arvinas Operations, Inc., priority 2015, dated 2022).

In the experiment the target is T1, Androgen Receptor (Homo sapiens, UniProt P10275).
T1 construct: endogenous in cells; host or cells: VCaP cells
T1 sequence (P10275 1-920): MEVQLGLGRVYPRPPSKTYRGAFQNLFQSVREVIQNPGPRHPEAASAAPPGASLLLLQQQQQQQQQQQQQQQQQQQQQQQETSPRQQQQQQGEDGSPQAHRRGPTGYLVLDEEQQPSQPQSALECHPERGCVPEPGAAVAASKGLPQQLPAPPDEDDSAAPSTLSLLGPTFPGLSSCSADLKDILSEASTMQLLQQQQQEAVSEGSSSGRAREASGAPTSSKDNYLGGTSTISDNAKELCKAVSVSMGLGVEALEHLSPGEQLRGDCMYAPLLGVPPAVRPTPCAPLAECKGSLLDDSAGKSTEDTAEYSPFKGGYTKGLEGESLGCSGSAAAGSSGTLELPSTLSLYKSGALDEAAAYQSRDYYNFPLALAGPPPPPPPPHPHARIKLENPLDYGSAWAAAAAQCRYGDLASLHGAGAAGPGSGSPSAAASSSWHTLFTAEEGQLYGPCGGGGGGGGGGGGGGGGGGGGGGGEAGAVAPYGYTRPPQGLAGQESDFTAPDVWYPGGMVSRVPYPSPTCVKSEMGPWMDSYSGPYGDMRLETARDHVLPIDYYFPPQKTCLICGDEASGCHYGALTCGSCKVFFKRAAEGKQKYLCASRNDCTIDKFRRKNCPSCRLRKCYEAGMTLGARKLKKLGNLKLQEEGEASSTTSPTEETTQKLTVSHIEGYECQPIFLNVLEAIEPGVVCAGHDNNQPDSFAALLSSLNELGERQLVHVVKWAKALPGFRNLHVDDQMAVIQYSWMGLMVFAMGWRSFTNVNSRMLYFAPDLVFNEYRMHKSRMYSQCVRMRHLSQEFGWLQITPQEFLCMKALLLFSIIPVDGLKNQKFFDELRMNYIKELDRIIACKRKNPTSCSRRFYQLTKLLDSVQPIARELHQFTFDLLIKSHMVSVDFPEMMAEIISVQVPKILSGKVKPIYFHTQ
Briefly: Androgen Receptor ELISA assay (PathScan AR ELISA) in VCaP cells: AR degradation, Dmax and DC50. The format is cell-based. The method, boiled down:
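VCaP cells, 30,000/well, grown ≥3 days in phenol red-free RPMI with 5% charcoal-stripped FBS; compound added in 0.1% DMSO with 0.1 nM R1881, 7 half-log doses, 24 h. Lysate AR quantified by PathScan sandwich ELISA, HRP/TMB read at 450 nm, giving DC50 and Dmax.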
On the technique in general: In an ELISA, binding on a coated surface is turned into a signal by an enzyme label.

The mark [1] stands for this setting: read-out: VCaP DC50; VCaP cells; Table 36.
Where [2] appears, read: VCaP cells; Table 36; read-out: VCaP DC50.
Setting [3] is: VCaP, VCaP cells; Table 36; read-out: VCaP Dmax (%).

In the case of `Cc1ncsc1-c1ccc([C@H](C)NC(=O)[C@@H]2CC3CN2C(=O)C(C(C)(C)C)NC(=O)COCCCOCCC(CCOc2ccc(N4C(=S)N(c5ccc(C#N)c(C(F)(F)F)c5)C(=O)C4(C)C)cc2)OC(=O)CC/C=C/CCC(=O)O3)cc1` (stereo partly drawn) [Example 619, (3S,25R,27S,E)-3-(tert-butyl)-14-(2-(4-(3-(4-cyano-3-(trifluoromethyl)phenyl)-5,5-dimethyl-4-oxo-2-thioxoimidazolidin-1-yl)phenoxy)ethyl)-N-((S)-1-(4-(4-methylthiazol-5-yl)phenyl)ethyl)-2,5,16,23-tetraoxo-7,11,15,24-tetraoxa-1,4-diazabicyclo[23.2.1]oct-acos-19-ene-27-carboxamide], the Dmax (VCaP, read-out: VCaP Dmax (%)) is less than 25%. Under setting [1], the DC50 was greater than 0.501 µM. For the compound `Cc1ncsc1-c1ccc([C@H](C)NC(=O)[C@@H]2CC3CN2C(=O)C(C(C)(C)C)NC(=O)COCCCOCCC(CCOc2ccc(N4C(=S)N(c5ccc(C#N)c(C(F)(F)F)c5)C(=O)C4(C)C)cc2)OC(=O)CC/C=C/CCC(=O)O3)cc1` (stereo partly drawn) [Example 620, (3S,25R,27S,E)-3-(tert-butyl)-14-(2-(4-(3-(4-cyano-3-(trifluoroemthyl)phenyl)-5,5-dimethyl-4-oxo-2-thioxoimidazolidin-1-yl)phenoxy)ethyl)-N-((S)-1-(4-(4-methylthiazol-5-yl)phenyl)ethyl)-2,5,16,23-tetraoxo-7,11,15,24-tetraoxa-1,4-diazabicyclo[23.2.1]oct-acos-19-ene-27-carboxamide], the DC50 under setting [1] was greater than 0.501 µM. On to `Cc1ncsc1-c1ccc([C@H](C)NC(=O)[C@@H]2C[C@@H]3CN2C(=O)[C@H](C(C)(C)C)NC(=O)COCCCOCCC(CCOc2ccc(N4C(=S)N(c5ccc(C#N)c(C(F)(F)F)c5)C(=O)C4(C)C)cc2)OC(=O)CCc2cn(nn2)CCCCCC(=O)O3)cc1` (stereo partly drawn) [Example 621, (93R,95S,11S,Z)-11-(tert-butyl)-22-(2-(4-(3-(4-cyano-3-(trifluoromethyl)phenyl)-5,5-dimethyl-4-oxo-2-thioxoimidazolidin-1-yl)phenoxy)ethyl)-N-((S)-1-(4-(4-methylthiazol-5-yl)phenyl)ethyl)-7,10,13,24-tetraoxo-11H-8,15,19,23-tetraoxa-12-aza-1(1,4)-triazola-9(3,1)-pyrrolidinacyclohexaco-saphane-95-carboxamide], for which the Dmax (VCaP, read-out: VCaP Dmax (%)) is less than 25%. In addition, the DC50 under setting [1] is greater than 0.501 µM. Consider `Cc1ncsc1-c1ccc([C@H](C)NC(=O)[C@@H]2C[C@@H](O)CN2C(=O)[C@@H](NC(=O)CN2CCO[C@H](CN3CCO[C@@H](COc4ccc(N5C(=S)N(c6ccc(C#N)c(C(F)(F)F)c6)C(=O)C5(C)C)cc4)C3)C2)C(C)(C)C)cc1` [Example 622, (2S,4R)-1-((S)-2-(2-((R)-2-(((R)-2-((4-(3-(4-cyano-3-(trifluoromethyl)phenyl)-5,5-dimethyl-4-oxo-2-thioxoimidazolidin-1-yl)phenoxy)methyl)mor-pholino)methyl)mor-pholino)acetamido)-3,3-dimethylbutanoyl)-4-hydroxy-N-((S)-1-(4-(4-methylthiazol-5-yl)phenyl)ethyl)pyrrolidine-2-carboxamide], for which, for the setting “VCaP, read-out: VCaP Dmax (%)”, the Dmax was less than 25%. The DC50 under setting [1] was greater than 0.501 µM.

On to `Cc1ncsc1-c1ccc([C@H](C)NC(=O)C2C[C@@H](O)CN2C(=O)C(NC(=O)CN2CCC(OCCOc3ccc(C(=O)N[C@H]4C(C)(C)[C@H](Oc5ccc(C#N)c(Cl)c5)C4(C)C)cc3)CC2)C(C)(C)C)cc1` (stereo partly drawn) [Example 623, (2S,4R)-1-((S)-2-(2-(4-(2-(4-(((1r,3r)-3-(3-chloro-4-cyanophenoxy)-2,2,4,4-tetramethylcyclobutyl)carbamoyl)phenoxy)eth-oxy)piperidin-1-yl)acetamido)-3,3-dimethylbutanoyl)-4-hydroxy-N-((S)-1-(4-(4-methylthiazol-5-yl)phenyl)ethyl)pyrrolidine-2-carboxamide], for which the DC50 under setting [2] was less than 0.05 µM. The Dmax under setting [3] is greater than 71%. Regarding `Cc1ncsc1-c1ccc([C@H](C)NC(=O)[C@@H]2CC(O)CN2C(=O)[C@H](C(C)C)n2nccc2OCCCCCNc2ccc(C(=O)N[C@H]3C(C)(C)[C@H](Oc4ccc(C#N)c(Cl)c4)C3(C)C)cc2)cc1` (stereo partly drawn) [Example 624, (2S,4R)-1-((S)-2-(5-((5-((4-(((1r,3r)-3-(3-chloro-4-cyanophenoxy)-2,2,4,4-tetramethylcyclobutyl)carbamoyl)phenyl)amino)pentyl)oxy)-1H-pyrazol-1-yl)-3-methylbutanoyl)-4-hydroxy-N-((S)-1-(4-(4-methylthiazol-5-yl)phenyl)ethyl)pyrrolidine-2-carboxamide], under setting [2], the DC50 is greater than 0.501 µM. Also, under setting [3], the Dmax was less than 25%.

In the case of `Cc1ncsc1-c1ccc([C@H](C)NC(=O)[C@@H]2CC(O)CN2C(=O)[C@H](C(C)C)n2nccc2OCCCCCNc2ccc(C(=O)N[C@H]3C(C)(C)[C@H](Oc4ccc(C#N)c(Cl)c4)C3(C)C)cc2)cc1` (stereo partly drawn) [Example 625, (2S,4R)-1-((R)-2-(5-((5-((4-(((1r,3r)-3-(3-chloro-4-cyanophenoxy)-2,2,4,4-tetramehtylcyclobutyl)carbamoyl)phenyl)amino)pentyl)oxy)-1H-pyrazol-1-yl)-3-methylbutanoyl)-4-hydroxy-N-((S)-1-(4-(4-methylthiazol-5-yl)phenyl)ethyl)pyrrolidine-2-carboxamide], the “VCaP Dmax (%)” value (VCaP cells; Table 36) was “++ (26% ≤ Dmax ≤ 50%)”. Moreover, under setting [2], the DC50 was greater than 0.501 µM. As to `Cc1ncsc1-c1ccc([C@H](C)NC(=O)[C@@H]2C[C@@H](O)CN2C(=O)[C@H](C(C)C)n2cc(Oc3ccc(OC4CCC(Oc5ccc(N6C(=S)N(c7ccc(C#N)c(C(F)(F)F)c7)C(=O)C6(C)C)cc5)CC4)nc3)cn2)cc1` (stereo partly drawn) [Example 627, (2S,4R)-1-((S)-2-(4-((6-((4-(4-(3-(4-cyano-3-(trifluoromethyl)phenyl)-5,5-dimethyl-4-oxo-2-thioxoimidazolidin-1-yl)phenoxy)cyclohexyl)oxy)pyridin-3-yl)oxy)-1H-pyrazol-1-yl)-3-methylbutanoyl)-4-hydroxy-N-((S)-1-(4-(4-methylthiazol-5-yl)phenyl)ethyl)pyrrolidine-2-carboxamide], the Dmax (VCaP, read-out: VCaP Dmax (%)) fell in the range of 26 to 50%. Further, the DC50 under setting [1] is greater than 0.501 µM.

As for `Cc1ncsc1-c1ccc([C@H](C)NC(=O)[C@@H]2C[C@@H](O)CN2C(=O)[C@@H](C(C)C)n2cc(Oc3ccc(OC4CCC(Oc5ccc(N6C(=S)N(c7ccc(C#N)c(C(F)(F)F)c7)C(=O)C6(C)C)cc5)CC4)nc3)cn2)cc1` (stereo partly drawn) [Example 628, (2S,4R)-1-((R)-2-(4-((6-((4-(4-(3-(4-cyano-3-(trifluoromethyl)phenyl)-5,5-dimethyl-4-oxo-2-thioxoimidazolidin-1-yl)phenoxy)cyclohexyl)oxy)pyridin-3-yl)oxy)-1H-pyrazol-1-yl)-3-methylbutanoyl)-4-hydroxy-N-((S)-1-(4-(4-methylthiazol-5-yl)phenyl)ethyl)pyrrolidine-2-carboxamide], the maximal degradation (Dmax) (VCaP, read-out: VCaP Dmax (%)) lay in the range of 26 to 50%. In addition, under setting [1], the DC50 was greater than 0.501 µM. For `Cc1ncsc1-c1ccc([C@H](C)NC(=O)C2CC3CN2C(=O)C(C(C)(C)C)NC(=O)COCCCOCCC(CCOc2ccc(N4C(=O)N(c5ccc(C#N)c(C(F)(F)F)c5)C(=O)C4(C)C)cc2)OC(=O)CCCCCn2cc(nn2)CCC(=O)O3)cc1` (stereo partly drawn) [Example 629, (63R,8S,Z)-8-(tert-butyl)-19-(2-(4-(3-(4-cyano-3-(trifluoromethyl)phenyl)-5,5-dimethyl-4-oxo-2-thioxoimidazolidin-1-yl)phenoxy)ethyl)-N-((S)-1-(4-(4-methylthiazol-5-yl)phenyl)ethyl)-4,7,10,21-tetraoxo-11H-5,12,16,20-tetraoxa-9-aza-1(4,1)-triazola-6(3,1)-pyrrolidineacyclohexaco-saphane-65-carboxamide], under “VCaP, read-out: VCaP Dmax (%)”, the Dmax lay within 26 to 50%. The DC50 under setting [1] fell in the range of 0.051 to 0.5 µM.

For the compound `Cc1ncsc1-c1ccc([C@H](C)NC(=O)[C@@H]2C[C@@H](O)CN2C(=O)[C@@H](NC(=O)COCCCCOc2ccc(-c3ccc(C(=O)N[C@H]4C(C)(C)[C@H](Oc5ccc(C#N)c(Cl)c5)C4(C)C)cc3)cc2)C(C)(C)C)cc1` [Example 630, (2S,4R)-1-((S)-2-(2-(4-((4′-(((1r,3r)-3-(3-chloro-4-cyanophenoxy)-2,2,4,4-tetramethylcyclobutyl)carbamoyl)-[1,1′-biphenyl]-4-yl)oxy)butoxy)acetamido)-3,3-dimethylbutanoyl)-4-hydroxy-N-((S)-1-(4-(4-methylthiazol-5-yl)phenyl)ethyl)pyrrolidine-2-carboxamide], the half-maximal degradation concentration (DC50) under setting [2] is less than 0.05 µM. Besides, where the note is “VCaP, read-out: VCaP Dmax (%), VCaP cells; Table 36”, the Dmax was greater than 71%.
